# Test results as given in article PMC3846562, “Retro-Inverso Carbohydrate Mimetic Peptides with Annexin1-Binding Selectivity, Are Stable In Vivo, and Target Tumor Vasculature” (PLoS ONE, 2013).
# Where a SMILES comes first, the peptide text is derived from it. [ ]: non-standard residue; d: D form. The star is where a group is joined. 5TAMRA = CN(C)c1ccc2c(c1)Oc1cc(N(C)C)ccc1C21OC(=O)c2cc(C(=O)*)ccc21
# How the values were obtained:
# [1] = Stability of TMR-labeled peptides in mouse plasma; assay type: in vitro ADME; settings: 37°C; for susceptibility to mouse plasma proteases (in words): incubated with fresh mouse plasma, HPLC
# Protocol: Mouse blood was collected in serum-separation tubes containing heparin sodium and immediately centrifuged at 10,000 rpm for 10 min. Fresh mouse plasma was then removed and stored for further analysis. Then, 200 µg of TMR-RIF7 and TMR-IF7 was dissolved in 10 µl DMSO, added to 1 ml of the fresh plasma, and incubated at 37°C. A 50 µl aliquot was withdrawn from the incubation mixture at the time indicated, added to 450 µl acetonitrile: water (50∶50) containing 0.1% TFA, centrifuged at 5,000 rpm for 10 min to remove Insoluble material, and then the supernatant was analyzed by HPLC as described previously in §2.2. Elution was monitored (excitation λ = 543 nm; emission λ = 570 nm). The relative amount of TMR-RIF7 and TMR-IF7 that remained in the mouse plasma […].
# [2] = tested on: A549 cells; test: Cell binding after pre-incubation in complete medium (10% FBS); assay type: cell-based, human; settings: 10 min; for fluorescent intensity after incubation of peptide with complete medium prior to cells: complete medium containing 10% FBS, 37°C, then A549 cells, IF7 p<0.001, RIF7 p<0.01
# Protocol: A549 cells were seeded (5×10^3 cells/well) in 96-well plates (Corning Coaster, Tokyo, Japan) and incubated for 12 h. Cells were incubated with serum free medium (special Dulbecco's modified Eagle medium supplemented with 100 U/mL penicillin, […] streptomycin) containing TMR-RIF7, TMR-IF7, or TMR-RQ7 (TMR conjugated to reverse IF7: sequence RQWLLFI, composed of L-amino acids) at the concentration of 10 µg/ml. In addition, to verify the stability of modified peptides, TMR-IF7 and TMR-RIF7 were incubated with complete medium (special Dulbecco's modified Eagle medium supplemented with 10% heat-inactivated FBS, 100 U/mL penicillin, […] streptomycin) for 10 min at 37°C in advance of serum free medium. The solution was removed and cells were washed three times with ice-cold PBS (pH 7.4) and then visualized under a fluorescent microscope (Leica DMI 4000B, Germany).
# (§1) For direct competition studies, non-labeled IF7 or RIF7 (10 µg/ml) was added to each well and incubated for 30 min. TMR-IF7 or TMR-RIF7 (10 µg/ml) were then added and incubated at 37°C for 30 min. The solution was removed and the cells were washed three times with ice-cold PBS (pH 7.4) and then visualized under a fluorescent microscope (Leica DMI 4000B, Germany). The fluorescent signal intensity of each well was quantified using an F-7000 FL spectrophotometer.
# [3] = biological target: T1, Anxa1 (Homo sapiens, UniProt P04083); test: Inhibition assay of cell binding with anti-Anxa1 antibody; assay type: cell-based; settings: A549 cells; for influence of normal rabbit IgG on binding capacity to cells: normal rabbit IgG 4 µg per well 30 min prior to peptide
# T1 construct: endogenous in cells; host or cells: A549 cells
# T1 sequence (P04083 1-346): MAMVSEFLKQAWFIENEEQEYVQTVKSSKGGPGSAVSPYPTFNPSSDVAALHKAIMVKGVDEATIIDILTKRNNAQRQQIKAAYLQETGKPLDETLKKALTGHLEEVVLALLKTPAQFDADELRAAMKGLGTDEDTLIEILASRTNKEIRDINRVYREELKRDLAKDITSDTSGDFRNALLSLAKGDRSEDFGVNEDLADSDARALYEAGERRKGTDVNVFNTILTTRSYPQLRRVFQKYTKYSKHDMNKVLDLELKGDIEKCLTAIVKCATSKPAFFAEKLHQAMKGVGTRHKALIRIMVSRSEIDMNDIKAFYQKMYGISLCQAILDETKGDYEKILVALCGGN
# Protocol: For inhibition assays, anti-Anxa1 antibody or control normal rabbit IgG (4 µg each) was added to each well and incubated for 30 min. TMR-IF7 or TMR-RIF7 (10 µg/ml) were then added and incubated at 37°C for 30 min. The solution was removed and cells were washed three times with ice-cold PBS (pH 7.4) and then visualized under a fluorescent microscope (Leica DMI 4000B, Germany).
# as §1
# [4] = biological target: T1, Anxa1; test: Direct competition study with non-labeled peptide; assay type: cell-based; settings: A549 cells
# Protocol: as §1
# [5] = tested on: lung melanoma (B16-F10); assay type: in vivo, mouse
# Protocol: (§2) B16-F10 cells (7.5×10^5 cells suspended in 250 µl PBS) were injected intravenously into BALB/c mice to establish a pulmonary metastatic melanoma model. Specifically, KBv cells (5×10^6cells suspended in 200 ml cell culture medium) were inoculated subcutaneously into the right hind legs of nude mice to produce a subcutaneous KBv xenograft model. Ex vivo real-time fluorescence imaging analysis was used to evaluate the tumor targeting activity of TMR-RIF7. One week after inoculation, TMR-IF7 or TMR-RIF7 (200 µl, 0.5 mg/ml in 5% glucose solution) was injected through the tail vein of mice bearing pulmonary tumors. The mice were then sacrificed and perfused intracardially with normal saline to compare tissue and tumor distribution of TMR-RIF7. Tumor-bearing lungs and other major organs, including hearts, livers, spleens and kidneys were removed, washed with saline, and imaged using a Cambridge Research & Instrumentation (CRi) in vivo imaging system (CRi, MA, USA). When subcutaneous KBv tumors were grown to a palpable size (about 8–10 mm diameter), the same process was carried out to evaluate tissue and tumor distribution of TMR-RIF7 in subcutaneous tumor-bearing nude mice. Next, 20 µg of each rabbit anti-Anxa1 antibody (N-19) or rabbit IgG antibody was injected 15 min prior to TMR-IF7 or TMR-RIF7 injection for inhibition assays in pulmonary tumor-bearing mice. Then, resulting images (spectral cube, containing a spectrum at every pixel) were loaded into Maestro™ 2.10 software and analyzed.
# [6] = Systemic distribution in dissected organs, ex vivo imaging; set-up: species or system mouse; settings: for organ distribution of TMR-labeled peptide: major organs collected at 30 min and 4 h after i.v. injection
# Protocol: as §2, with “Ex” for “B16-F10 cells (7.5×10^5 cells suspended in 250 µl PBS) were injected intravenously into BALB/c mice to establish a pulmonary metastatic melanoma model. Specifically, KBv cells (5×10^6cells suspended in 200 ml cell culture medium) were inoculated subcutaneously into the right hind legs of nude mice to produce a subcutaneous KBv xenograft model. Ex”
# [7] = biological target: T2, Anxa1 (Mus musculus, UniProt P10107); test: In vivo inhibition assay with anti-Anxa1 antibody in pulmonary tumor-bearing mice; settings: 20 µg rabbit IgG 15 min prior to peptide
# T2 construct: IF7 or RIF7 targets tumors through Anxa1 expressed on endothelial cell surfaces; from tissue; host or cells: pulmonary tumour vasculature of tumour-bearing mice (in vivo)
# T2 sequence (P10107 1-346): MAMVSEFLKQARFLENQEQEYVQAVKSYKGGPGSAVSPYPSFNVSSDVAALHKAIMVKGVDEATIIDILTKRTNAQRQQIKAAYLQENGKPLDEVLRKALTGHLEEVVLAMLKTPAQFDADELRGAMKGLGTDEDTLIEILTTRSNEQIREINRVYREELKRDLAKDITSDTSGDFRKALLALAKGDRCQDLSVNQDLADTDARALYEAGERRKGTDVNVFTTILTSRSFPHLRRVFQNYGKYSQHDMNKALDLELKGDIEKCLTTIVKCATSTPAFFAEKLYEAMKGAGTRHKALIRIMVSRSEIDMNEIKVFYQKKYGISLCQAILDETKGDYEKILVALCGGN
# Protocol: as §2, with “Ex” for “B16-F10 cells (7.5×10^5 cells suspended in 250 µl PBS) were injected intravenously into BALB/c mice to establish a pulmonary metastatic melanoma model. Specifically, KBv cells (5×10^6cells suspended in 200 ml cell culture medium) were inoculated subcutaneously into the right hind legs of nude mice to produce a subcutaneous KBv xenograft model. Ex”
# [8] = tested on: tumor; settings: mice; cited from earlier work
# Text: Hatakeyama's laboratory used peptide-displaying phage technology to generate a carbohydrate mimetic peptide with the consensus sequence IFLLWQR, which was designated IF7 [14]. IF7 has a special affinity for the tumor vasculature and functions as an efficient anticancer drug delivery vehicle, slowing tumor growth. Experiments confirmed that IF7 specifically binds to a 15-kDa fragment of annexin1 (Anxa1). Anxa1 is a member of the large annexin family of cytosolic proteins with calcium-dependent associations with cell membranes.
# [9] = tested on: subcutaneous KBv xenografts; test: Ex vivo fluorescence imaging, subcutaneous KBv xenograft model; assay type: in vivo; settings: nude mice, both 30 min and 4 h after i.v. injection
# Protocol: as §2, with “Next, 20 µg of each rabbit anti-Anxa1 antibody (N-19) or rabbit IgG antibody was injected 15 min prior to TMR-IF7 or TMR-RIF7 injection for inhibition assays in pulmonary tumor-bearing mice.” left out
# [10] = TMR-labeled peptide 10 µg/ml, 37°C, 30 min, F-7000 FL spectrophotometer, mean ± SD, n = 3
compound,measurement,setting,value
CC[C@H](C)[C@H](NC(=O)c1ccc2c(c1)C(=O)OC21c2ccc(N(C)C)cc2Oc2cc(N(C)C)ccc21)C(=O)N[C@@H](Cc1ccccc1)C(=O)N[C@@H](CC(C)C)C(=O)N[C@@H](CC(C)C)C(=O)N[C@@H](Cc1c[nH]c2ccccc12)C(=O)N[C@@H](CCC(N)=O)C(=O)N[C@@H](CCCNC(=N)N)C(=O)O [TMR-IF7] (5TAMRA-IFLLWQR-OH),"metabolised at 0.5 h, 198 µg/mL","[1]; fresh heparinised mouse plasma, fresh heparin mouse plasma, 200 µg peptide in 10 µl DMSO per 1 ml plasma, within 30 min, HPLC with fluorescence detection (ex 543 nm, em 570 nm), mean of at least three experiments, read-out: peptide degraded in mouse plasma",> 80%
same,susceptibility to mouse plasma proteases (in words),[1],rapidly degraded
CC[C@@H](C)[C@@H](NC(=O)[C@@H](Cc1ccccc1)NC(=O)[C@@H](CC(C)C)NC(=O)[C@@H](CC(C)C)NC(=O)[C@@H](Cc1c[nH]c2ccccc12)NC(=O)[C@@H](CCC(N)=O)NC(=O)[C@@H](CCCNC(=N)N)NC(=O)c1ccc2c(c1)C(=O)OC21c2ccc(N(C)C)cc2Oc2cc(N(C)C)ccc21)C(=O)O [TMR-RIF7] (5TAMRA-[dR][dQ][dW][dL][dL][dF][dI]-OH),"remaining at 6 h, 198 µg/mL","[1]; fresh heparinised mouse plasma, fresh heparin mouse plasma, 200 µg peptide in 10 µl DMSO per 1 ml plasma, within 6 h, HPLC with fluorescence detection (ex 543 nm, em 570 nm), mean of at least three experiments, read-out: peptide remaining intact in mouse plasma",~70%
same,susceptibility to mouse plasma proteases (in words),[1],did not change significantly
same,resistance to protease in complete medium (qualitative imaging),"[2]; complete medium with 10% FBS, 37°C prior to incubation with A549 cells",more resistant to protease in complete medium than TMR-IF7
"IFLLWQR [IF7, parent peptide]","intensity of fluorescence, cells treated with peptide only",[3]; [10],19.32±0.89
same,"intensity of fluorescence, cells incubated with anti-Anxa1 antibody prior to peptide","[3]; anti-Anxa1 antibody 4 µg per well 30 min, then TMR-labeled peptide 10 µg/ml, 37°C, 30 min, mean ± SD, n = 3",5.26±1.97
same,influence of normal rabbit IgG on binding capacity to cells,[3],little influence
same,"fluorescent intensity, cells treated with peptide only (competition assay)",[4]; [10],20.31±1.78
same,"fluorescent intensity, cells pre-incubated with non-labeled competitor","[4]; non-labeled peptide 10 µg/ml 30 min, then TMR-labeled peptide 10 µg/ml, 37°C, 30 min, mean ± SD, n = 3",4.26±1.96
same,fluorescent intensity after incubation of peptide with complete medium prior to cells,[2],decreased significantly
same,mean fluorescent intensity in the lung tumor region,"[5]; 12 h post intravenous injection, mean ± SD, n = 3",hardly detectable
same,organ distribution of TMR-labeled peptide,[6],"distributed mainly in liver, kidney and tumor tissue"
same,effect of normal rabbit IgG injected prior to peptide,[7],did not alter targeted distribution in the lung
same,time for which the tumor signal remained high,[8],40 min
same,time to detection in the tumor after injection,[8],≤ 1 min
same,time to plateau in the tumor,[8],9 min
RQWLLFI [RIF7],binding to Anxa1 inhibited by anti-Anxa1 antibody,[3]; anti-Anxa1 antibody 4 µg per well 30 min prior to TMR-labeled peptide 10 µg/ml,~70%
same,influence of normal rabbit IgG on binding capacity to cells,[3],little influence
same,binding to Anxa1 inhibited by non-labeled peptide,[4]; non-labeled peptide 10 µg/ml 30 min prior to TMR-labeled peptide 10 µg/ml,~67%
same,fluorescent intensity after incubation of peptide with complete medium prior to cells,[2],decreased significantly
same,signal intensity in lung tumor relative to IF7,"[5]; after 4 h, mean fluorescent intensities in lung tumor region, n = 3",~2.3 fold
same,fluorescent signal in lung melanoma compared with the IF7 group,"[5]; all survey points (30 min, 4, 8, 12 h)",stronger fluorescent signal
same,fluorescent intensity in KBv tumors compared to IF7-treated mice,[9],greater fluorescent intensity
same,fluorescent signals in organs compared with the other peptide,[6]; 30 min and 4 h after i.v. injection,stronger fluorescent signals at both time points
same,organ distribution of TMR-labeled peptide,[6],"distributed mainly in liver, kidney and tumor tissue"
same,effect of normal rabbit IgG injected prior to peptide,[7],did not alter targeted distribution in the lung
"RQWLLFI [RQ7, control peptide]",signals in the lung,"[6]; different time points after i.v. injection, control peptide",remained at background levels
